Several values for one entry are separate records, joined by “and”; a condition that tells them apart may be missing. Equal entries are not always repeated. Where two headings read alike, the source gives them in different places.
Columns and labels:
[1] = tested on: rat sciatic nerve; assay type: in vivo, Female Charles River rats
[2] = tested on: peridural space / spinal roots of dogs (digital pain, scrotal pain, weight support); assay type: in vivo, Mature male beagles
[3] = tested on: outward potassium current; conditions: voltage-clamped giant axon; cited from earlier work
[4] = tested on: inward initial sodium current; conditions: voltage-clamped giant axon; cited from earlier work
[5] = tested on: sheep (anal, vulv.-scrotal and digital pain); assay type: in vivo; conditions: Compound C alone 1%
[6] = compound alone 0.5%, no vasoconstrictor
[7] = compound alone 1.0%, no vasoconstrictor
[8] = local anesthetic alone 0.25%, no vasoconstrictor
[9] = alone: S 0.75%, T 1%, bupivicaine 0.5%, epinephrine 1:100,000, 5 ml
[10] = local anesthetic alone: lidocaine 2.0%, dibucaine 0.125%, procaine 2.0%, no epinephrine
[11] = local anesthetic alone: lidocaine 2.0%, dibucaine 0.125%, procaine 2.0%, no epinephrine, approximate
[12] = 1:100,000 epinephrine, procaine 1%, saxitoxin 1 μg/ml
[13] = 5 ml, epinephrine 1:100,000, lidocaine 2%
[14] = 5 ml, epinephrine 1:100,000, lidocaine 2%, saxitoxin 4 μg/ml

Cc1cccc(C)c1NC(=O)C(C)N (stereo not shown) [Q, 2-Amino-2',6'-propionoxylidide]
Frequency [1, 6]: 4/6
Duration, mean ± S.D. [1, 7]: 79 ± 19 min
Frequency [1, 7]: 5/6

CCCCOc1ccc(OCCCN2CCOCC2)cc1 [Pramoxine, pramoxine]
Anesthetic effect (in words) ([1]; Example 5, STX 2 μg/ml or pramoxine 0.25% alone): no anesthetic effect whatever was observed
Duration, mean ± S.D. [1, 8]: 0 min
Frequency [1, 8]: 0/5

CCCCN1CCCCC1C(=O)Nc1c(C)cccc1C (stereo not shown) [Bupivicaine, bupivacaine]
Duration of block of Digital Pain [2, 9]: 232 to 269 min
Duration of block of Scrotal Pain [2, 9]: 94 min and 139 min
Duration of block of Scrotal Pain ([2]; alone: S 0.75%, T 1%, bupivicaine 0.5%, epinephrine 1:100,000, 5 ml, listed as bupivicaine): about 94 min.

CCC(C)N(CC)CC(=O)Nc1c(C)cccc1C (stereo not shown) [Compound P, 2-(N-Ethyl-sec. butylamino)-2',6'-acetoxylidide]
Frequency (in words) ([1]; Example 5, STX 2 μg/ml in combinations): poor
Duration, mean ± S.D. [1, 6]: 45 min
Frequency [1, 6]: 2/6

CCCCOc1cc(C(=O)NCCN(CC)CC)c2ccccc2n1 [Dibucaine, dibucaine]
Duration of complete block, mean ± standard deviation [1, 10]: 170 ± 33 min
Frequency of complete block (C) [1, 10]: 5/5
Onset [1, 11]: 4 min

CCCN(CC)C(CC)C(=O)Nc1c(C)cccc1C (stereo not shown) [S, 2-(N-Ethyl-n-propylamino)-2',6'-butyroxylidide]
Duration of block of Digital Pain [2, 9]: 151 (77-256) min.
Duration of block of Scrotal Pain [2, 9]: 128 (82-173) min.

Cc1cccc(C)c1NC(=O)CN(C)C [H, 2-Dimethylamino-2'-6'-acetoxylidide]
Frequency [1, 6]: 5/6
Duration, mean ± S.D. [1, 7]: 76 ± 12 min
Frequency [1, 7]: 6/6

CCN(CC)CCOC(=O)c1ccc(N)cc1 [Procaine, procaine]
Effect on outward potassium current (in words) [3]: reduce
Duration, mean ± standard deviation [1, 12]: 104 ± 15 min
Frequency [1, 12]: 100%
Onset [1, 12]: 2 min
Duration of complete block, mean ± standard deviation [1, 10]: 99 ± 8 min
Frequency of complete block (C) [1, 10]: 5/5
Onset [1, 11]: 1 min
Effect on inward (initial) sodium current (in words) [4]: reduce

CCCCN(C)CC(=O)Nc1c(C)cccc1C [M, 2-(N-Methyl-n-butylamino)-2',6'-acetoxylidide]
Frequency [1, 7]: 5/6

CCCOc1ccc(C(=O)CCN2CCCCC2)cc1 [Falicain, falicain]
Duration, mean ± S.D. [1, 8]: 94 ± 21 min
Frequency [1, 8]: 5/5
Duration, mean ± S.D. ([1]; local anesthetic alone 0.25%, no vasoconstrictor, listed as falicain): about 94 min.

CCCC(C(=O)Nc1c(C)cccc1C)N(CC)CC (stereo not shown) [T, 2-Diethylamino-2',6'-valeroxylidide]
Duration of block of Digital Pain [2, 9]: 301 (238-365) min.
Duration of block of Scrotal Pain [2, 9]: 202 (185-218) min.

CCCN(CC(=O)Nc1c(C)cccc1C)C(C)(C)CC [Compound C, 2-(N-n-Propyl-tert. amylamino)-2',6'-acetoxylidide]
Duration of block of Digital Pain [5]: 45 to 60 min
Onset time [5]: 5 to 10 min
Duration of block of Scrotal Pain ([2]; C alone 1%, 10 ml, epinephrine 1:100,000, 2 animals): 192 min and 251 min

CCN(CC)CC(=O)Nc1c(C)cccc1C [Lidocaine, lidocaine]
Duration of complete block, mean ± standard deviation [1, 10]: 141 ± 28 min
Frequency of complete block (C) [1, 10]: 5/5
Onset [1, 11]: 1 min
Duration: mean, Weight Support [2, 13]: 137 min
Duration: range, Weight Support [2, 13]: 108 to 162 min
Duration: mean, Digital Pain [2, 14]: 127 min
Duration: mean, Scrotal Pain [2, 14]: 111 min
Duration: range, Digital Pain [2, 14]: 72 to 162 min
Duration: range, Scrotal Pain [2, 14]: 62 to 152 min
Onset: mean, Digital Pain [2, 14]: 7 min
Onset: mean, Scrotal Pain [2, 14]: 8 min
Onset: mean, Weight Support [2, 14]: 5 min
Onset: range, Digital Pain [2, 14]: 5 to 13 min
Onset: range, Scrotal Pain [2, 14]: 5 to 13 min
Onset: range, Weight Support [2, 14]: 3 to 6 min
Duration (salient points, in words) ([2]; Table III footnote): short
Frequency (salient points, in words) ([2]; Table III footnote): good

CCC(C)(C)NCC(=O)Nc1c(C)cccc1C [L, 2-tert. Amylamino-2',6'-acetoxylidide]
Frequency [1, 6]: 6/6
Duration, mean ± S.D. [1, 7]: 101 ± 8 min
Frequency [1, 7]: 6/6

CCNCC(=O)Nc1c(C)cccc1C [J, 2-Ethylamino-2',6'-acetoxylidide]
Frequency [1, 7]: 6/6

COC(=O)[C@H]1[C@@H](OC(=O)c2ccccc2)C[C@@H]2CC[C@H]1N2C [cocaine]
Effect on outward potassium current (in words) [3]: reduce
Effect on inward (initial) sodium current (in words) [4]: reduce

Cc1cccc(C)c1NC(=O)CNC1CCC1 [Compound K, 2-Cyclobutylamino-2',6'-acetoxylidide]
Frequency [1, 7]: 6/6

Reference: patent publication US3957996A (priority 1973, dated 1976)
